Reference: patent publication US8426386B2, “NK1 receptor antagonist composition” (Lion Corporation, priority 2006, dated 2013)

System: NK1 receptor
Assay: NK1 Receptor Antagonism Assay (calcium imaging, substance P stimulation)
Format: cell-based, human
Settings: for Efficacy (NK1 receptor antagonistic activity grade): substance P 100 μM; for effect as the NK1 receptor antagonist (in words): summary of Table 1
Text: [Performance Evaluation Test] NK1 Receptor Antagonism Assay
In this test, maltose, maltotriose, maltotetraose, maltopentaose, maltohexaose and maltoheptaose were purchased from SIGMA, isomaltose, isomaltotriose, isomaltotetraose, isomaltopentaose, isomaltohexaose and isomaltoheptaose were purchased from Seikagaku Corporation, and four types of oligosaccharides-1-kestose, fructofranosylnystose, nystose and galactotetraose—were purchased from Wako Pure Chemicals Industries Ltd. Each oligosaccharide was diluted with saline, and used.
In order to transiently express a cloned human NK1 receptor in HEK293, cDNA of the human NK1 receptor was cut out from pCDM8 (Invitrogen), and cloned in an expression vector pCDM9 derived by inserting an ampicillin resistant gene (BLUESCRIPT, nucleotides 1973 to 2964 from SK+) at a SacII site.
HEK293 cells were seeded at 1×10^5 cells in a Falcon dish (diameter: 3.5 cm) using α-MEM medium (Gibco) containing 10% bovine fetal serum, and cultured in a 5% CO2 incubator at 37° C. overnight. Then, 20 μg of the expression vector was transfected using Transfection Reagent FuGENE6 (Roche) according to attached instructions, and the transfectants were incubated at 37° C. for 3 days and assayed by a calcium imaging method.
According to Renganathan et al's method (Renganathan M et al., J. Neurophysiol., 84(2), […] (2000)), nerve cells were dispersed and isolated from spinal dorsal root ganglion in a wild type mouse, and 1×10^5 thereof were seeded in a 24-well plate coated with poly-L-lysine. The cells were cultured in 90% DMEM medium (GIBCO) supplemented with 10% bovine fetal serum, 2 mM glutamine, 100 U/mL of penicillin/streptomycin, 100 ng/mL of NGF (SIGMA) and 5 μM cytosine arabinoside (SIGMA) under 5% CO2 at 37° C. The cells were cultured for 1 to 3 weeks, and subsequently subjected to a calcium imaging analysis. A half of the nerve cells was identified to be positive for the NK1 receptor by staining the nerve cells derived from spinal dorsal root ganglion in the wild type mouse with an anti-NK1 receptor antibody (supplied from CHEMICON International).
The cells which express the NK1 receptor transiently or constitutively were subjected to measurement using a high resolution digital B/W cooling CCD camera (ORCA supplied from Hamamatsu Photonics K.K.), and their images were analyzed using an analysis software (AQUA COSMOS supplied from Hamamatsu Photonics K.K.). When the cells were labeled for calcium, Fluo4-AM (supplied from Molecular Probe) was used as a calcium sensitive dye. Fifty μg of Fluo4-AM was dissolved in 400 μL of DMSO in a vial, 4 μL of Pluronic F-127 (Molecular Probe) was added and mixed, and then 4 mL of OPTI-MEM (GIBCO) was added thereto. The calcium sensitive dye solution thus prepared was added to the cells, which were then incubated at 37° C. for 60 minutes. An agonist, an antagonist and samples to be evaluated were prepared at concentrations which were 10 times higher than assay concentrations, and analyzed by adding a one tenth volume of the cell suspension upon analysis. All reagents and an assay temperature were kept at 37° C. For the cells transfected transiently, YFP reporter DNA fluorescence (excitation: 490 nm) was used for identifying the transfected cells. Upon measurement, a fluorescence intensity obtained by initially imaging the untreated cells was made an initial value. After passing one minute, a change of calcium/fluorescence intensity in the sample to be evaluated at the desired concentration was monitored with an interval of one second before and after the addition (2 to 5 minutes). Subsequently, substance P was added, and immediately after (2 to 5 minutes), an antagonistic activity of the sample to be evaluated was determined by monitoring the change of intracellular calcium concentrations as the change of the fluorescence intensities with the interval of one second. […]

[1] = evaluated concentration 1000 ppm

| SMILES | Efficacy (NK1 receptor antagonistic activity grade) (evaluated concentration 0.1 ppm) | Efficacy (NK1 receptor antagonistic activity grade) (evaluated concentration 1 ppm) | Efficacy (NK1 receptor antagonistic activity grade) (evaluated concentration 10 ppm) | Efficacy (NK1 receptor antagonistic activity grade) (evaluated concentration 100 ppm) | Efficacy (NK1 receptor antagonistic activity grade) [1] | effect as the NK1 receptor antagonist (in words) |
| --- | --- | --- | --- | --- | --- | --- |
| OC[C@H]1O[C@H](O[C@H]2[C@H](O)[C@@H](O)C(O)O[C@@H]2CO)[C@H](O)[C@@H](O)[C@@H]1O (mixture of isomers) [Maltose, maltose] | D (Ineffective: the antagonistic activity was less than 65%, or the stimulating or agonistic activity of the sample was strong.) | D (Ineffective: the antagonistic activity was less than 65%, or the stimulating or agonistic activity of the sample was strong.) | C (Slightly effective: the antagonistic activity was less than 65%, and a stimulating or agonistic activity of the sample was weak.) | C (Slightly effective: the antagonistic activity was less than 65%, and a stimulating or agonistic activity of the sample was weak.) | B (Effective: the antagonistic activity was 65% or more and less than 75% and the more excellent performance than in the positive control was shown.) | high effect |
| OC[C@H]1O[C@@](CO)(OC[C@@]2(O[C@H]3O[C@H](CO)[C@@H](O)[C@H](O)[C@H]3O)O[C@H](CO)[C@@H](O)[C@@H]2O)[C@@H](O)[C@@H]1O [Example 1-Kestose, 1-kestose, reference compound] |  |  |  |  | D (Ineffective: the antagonistic activity was less than 65%, or the stimulating or agonistic activity of the sample was strong.) | no NK1 receptor antagonistic activity was observed at all |
| OC[C@H]1O[C@@](CO)(OC[C@@]2(OC[C@@]3(OC[C@@]4(O[C@H]5O[C@H](CO)[C@@H](O)[C@H](O)[C@H]5O)O[C@H](CO)[C@@H](O)[C@@H]4O)O[C@H](CO)[C@@H](O)[C@@H]3O)O[C@H](CO)[C@@H](O)[C@@H]2O)[C@@H](O)[C@@H]1O [Fructofranosylnystose, fructofranosylnystose, reference compound] |  |  |  |  | D (Ineffective: the antagonistic activity was less than 65%, or the stimulating or agonistic activity of the sample was strong.) | no NK1 receptor antagonistic activity was observed at all |
| OC[C@H]1O[C@@H](O[C@@H]2[C@H](O)[C@@H](O)[C@H](O[C@@H]3[C@H](O)[C@@H](O)[C@H](O[C@@H]4[C@H](O)[C@@H](O)C(O)O[C@@H]4CO)O[C@@H]3CO)O[C@@H]2CO)[C@H](O)[C@@H](O)[C@H]1O (stereo partly drawn) [Galactotetraose, galactotetraose, reference compound] |  |  |  |  | D (Ineffective: the antagonistic activity was less than 65%, or the stimulating or agonistic activity of the sample was strong.) | no NK1 receptor antagonistic activity was observed at all |
| OC[C@H]1O[C@H](OC[C@H]2O[C@H](OC[C@H]3O[C@H](OC[C@H]4O[C@H](OC[C@H]5O[C@H](OC[C@H]6O[C@H](OC[C@H]7OC(O)[C@H](O)[C@@H](O)[C@@H]7O)[C@H](O)[C@@H](O)[C@@H]6O)[C@H](O)[C@@H](O)[C@@H]5O)[C@H](O)[C@@H](O)[C@@H]4O)[C@H](O)[C@@H](O)[C@@H]3O)[C@H](O)[C@@H](O)[C@@H]2O)[C@H](O)[C@@H](O)[C@@H]1O (stereo partly drawn) [Isomaltoheptaose, isomaltoheptaose, reference compound] |  |  |  |  | D (Ineffective: the antagonistic activity was less than 65%, or the stimulating or agonistic activity of the sample was strong.) | no NK1 receptor antagonistic activity was observed at all |
| OC[C@H]1O[C@H](OC[C@H]2O[C@H](OC[C@H]3O[C@H](OC[C@H]4O[C@H](OC[C@H]5O[C@H](OC[C@H]6OC(O)[C@H](O)[C@@H](O)[C@@H]6O)[C@H](O)[C@@H](O)[C@@H]5O)[C@H](O)[C@@H](O)[C@@H]4O)[C@H](O)[C@@H](O)[C@@H]3O)[C@H](O)[C@@H](O)[C@@H]2O)[C@H](O)[C@@H](O)[C@@H]1O (stereo partly drawn) [Isomaltohexaose, isomaltohexaose, reference compound] |  |  |  |  | D (Ineffective: the antagonistic activity was less than 65%, or the stimulating or agonistic activity of the sample was strong.) | no NK1 receptor antagonistic activity was observed at all |
| OC[C@H]1O[C@H](OC[C@H]2O[C@H](OC[C@H]3O[C@H](OC[C@H]4O[C@H](OC[C@H]5OC(O)[C@H](O)[C@@H](O)[C@@H]5O)[C@H](O)[C@@H](O)[C@@H]4O)[C@H](O)[C@@H](O)[C@@H]3O)[C@H](O)[C@@H](O)[C@@H]2O)[C@H](O)[C@@H](O)[C@@H]1O (stereo partly drawn) [Isomaltopentaose, isomaltopentaose, reference compound] |  |  |  |  | D (Ineffective: the antagonistic activity was less than 65%, or the stimulating or agonistic activity of the sample was strong.) | no NK1 receptor antagonistic activity was observed at all |
| OC[C@H]1O[C@H](OC[C@H]2OC(O)[C@H](O)[C@@H](O)[C@@H]2O)[C@H](O)[C@@H](O)[C@@H]1O (stereo partly drawn) [Isomaltose, isomaltose, reference compound] |  |  |  |  | D (Ineffective: the antagonistic activity was less than 65%, or the stimulating or agonistic activity of the sample was strong.) | no NK1 receptor antagonistic activity was observed at all |
| OC[C@H]1O[C@H](OC[C@H]2O[C@H](OC[C@H]3O[C@H](OC[C@H]4OC(O)[C@H](O)[C@@H](O)[C@@H]4O)[C@H](O)[C@@H](O)[C@@H]3O)[C@H](O)[C@@H](O)[C@@H]2O)[C@H](O)[C@@H](O)[C@@H]1O (stereo partly drawn) [Isomaltotetraose, isomaltotetraose, reference compound] |  |  |  |  | D (Ineffective: the antagonistic activity was less than 65%, or the stimulating or agonistic activity of the sample was strong.) | no NK1 receptor antagonistic activity was observed at all |
| OC[C@H]1O[C@H](OC[C@H]2O[C@H](OC[C@H]3OC(O)[C@H](O)[C@@H](O)[C@@H]3O)[C@H](O)[C@@H](O)[C@@H]2O)[C@H](O)[C@@H](O)[C@@H]1O (stereo partly drawn) [Isomaltotriose, isomaltotriose, reference compound] |  |  |  |  | D (Ineffective: the antagonistic activity was less than 65%, or the stimulating or agonistic activity of the sample was strong.) | no NK1 receptor antagonistic activity was observed at all |
